Reference: patent US8822468B2 (Novartis AG, priority 2008, dated 2014)

Biological target: T1, cMET receptor tyrosine kinase (GST-cMET (969-1390)) (Homo sapiens, UniProt P08581)
T1 construct: made in house
Assay: EPK cMET profiling assay (LanthaScreen TR-FRET antibody based kinase phosphorylation assay)
Assay type: biochemical
Details: purified recombinant GST-cMET (969-1390), 2 μM ATP, 50 nM Fluorescein-PolyEAY, 60 minutes at room temperature; read-out: c-Met IC50
Outline: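 GST-cMET cytoplasmic domain (969-1390), 0.3 nM, phosphorylated 50 nM fluorescein-PolyEAY with 2 µM ATP, Mg2+/Mn2+, 0.6% DMSO, 60 min at room temperature. Stopped with EDTA; Tb-PY20 antibody TR-FRET single end-point read. Final compound concentrations 10 to 0.003 µM, 8 points.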

T1 sequence (P08581 969-1390): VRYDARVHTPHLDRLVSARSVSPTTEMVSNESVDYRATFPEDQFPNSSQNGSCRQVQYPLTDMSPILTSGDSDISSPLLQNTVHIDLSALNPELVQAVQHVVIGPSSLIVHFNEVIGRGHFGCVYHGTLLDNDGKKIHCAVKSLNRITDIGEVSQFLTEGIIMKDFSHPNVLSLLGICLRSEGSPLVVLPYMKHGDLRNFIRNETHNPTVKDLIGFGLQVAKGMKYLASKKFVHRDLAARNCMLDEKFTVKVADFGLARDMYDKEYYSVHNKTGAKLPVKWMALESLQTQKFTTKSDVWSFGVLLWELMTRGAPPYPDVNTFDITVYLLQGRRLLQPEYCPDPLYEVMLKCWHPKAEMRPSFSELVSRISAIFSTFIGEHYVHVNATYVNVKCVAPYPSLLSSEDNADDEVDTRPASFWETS

Row | SMILES | IC50
1 | Cn1cc(-c2ccc3ncc(Cc4cc5cccnc5cc4F)n3n2)cn1 [Example 173, 7-Fluoro-6-[6-(1-methyl-1H-pyrazol-4-yl)-imidazo[1,2-b]pyridazin-3-ylmethyl]-quinoline] | 0.004 µM
2 | CC(c1cc2cccnc2cc1F)c1cnc2ccc(-c3cnn(C)c3)nn12 (racemic) [Example 253, (rac)-7-Fluoro-6-{1-[6-(1-methyl-1H-pyrazol-4-yl)-imidazo[1,2-b]pyridazin-3-yl]-ethyl}-quinoline] | 0.013 µM
3 | CC(C)Nc1ccc2ncc(Cc3ccc4ncccc4c3)n2n1 [Example 91, Isopropyl-(3-quinolin-6-ylmethyl-imidazo[1,2-b]pyridazin-6-yl)-amine] | 0.029 µM
4 | CC(c1ccc(O)cc1)c1cnc2ccc(-c3cnn(C)c3)nn12 (racemic) [Example 222, (rac)-4-{1-[6-(1-Methyl-1H-pyrazol-4-yl)-imidazo[1,2-b]pyridazin-3-yl]-ethyl}-phenol] | 0.25 µM
5 | Cn1cc(-c2ccc3ncc(Cc4ccc5nc(F)cn5c4)n3n2)cn1 [Example 288, 3-(2-Fluoro-imidazo[1,2-a]pyridin-6-ylmethyl)-6-(1-methyl-1H-pyrazol-4-yl)-imidazo[1,2-b]pyridazine] | 0.85 µM
6 | C[C@@H](c1ccc2ncccc2c1)c1cnc2ccc(-c3cn[nH]c3)nn12 [Example 240, 6-{(S)-1-[6-(1H-Pyrazol-4-yl)-imidazo[1,2-b]pyridazin-3-yl]-ethyl}-quinoline] | 0.0084 µM
7 | CC(C)CNc1ccc2ncc(Cc3ccc4ncccc4c3)n2n1 [Example 79, Isobutyl-(3-quinolin-6-ylmethyl-imidazo[1,2-b]pyridazin-6-yl)-amine] | 0.044 µM
8 | Cn1cc(-c2ccc3ncc(Cc4c(F)cc5ncccc5c4F)n3n2)cn1 [Example 170, 5,7-Difluoro-6-[6-(1-methyl-1H-pyrazol-4-yl)-imidazo[1,2-b]pyridazin-3-ylmethyl]-quinoline] | 0.006 µM
9 | C[C@@H](c1ccc2ncccc2c1)c1cnc2ccc(-c3cnn(C)c3)nn12 [Example 159, 6-{(S)-1-[6-(1-Methyl-1H-pyrazol-4-yl)-imidazo[1,2-b]pyridazin-3-yl]-ethyl}-quinoline] | 0.014 µM
10 | CCn1cc(-c2ccc3ncc(Cc4ccc5nccn5c4)n3n2)cn1 [Example 289, 6-(1-Ethyl-1H-pyrazol-4-yl)-3-imidazo[1,2-a]pyridin-6-ylmethyl-imidazo[1,2-b]pyridazine] | 0.14 µM
11 | c1ccc(-c2cc(-c3ccc4ncc(Cc5ccc6ncccc6c5)n4n3)on2)cc1 [Example 34, 6-[6-(3-Phenyl-isoxazol-5-yl)-imidazo[1,2-b]pyridazin-3-ylmethyl]-quinoline] | 0.23 µM
12 | CC(c1ccc2ncc(Br)n2c1)c1cnc2ccc(-c3cnn(C)c3)nn12 (racemic) [Example 309, (rac)-3-[1-(3-Bromo-imidazo[1,2-a]pyridin-6-yl)-ethyl]-6-(1-methyl-1H-pyrazol-4-yl)imidazo[1,2-b]pyridazine] | 0.016 µM
13 | CC(O)c1cnc2ccc(Cc3cnc4ccc(-c5cnn(C)c5)nn34)cn12 (centres unmarked) [Example 303, 1-{6-[6-(1-Methyl-1H-pyrazol-4-yl)-imidazo[1,2-b]pyridazin-3-ylmethyl]-imidazo[1,2-a]pyridin-3-yl}-ethanol] | 0.19 µM
14 | Fc1cc2ncccc2c(F)c1Cc1cnc2ccc(-c3cnn(C4CCNCC4)c3)nn12 [Example 245, 5,7-Difluoro-6-[6-(1-piperidin-4-yl-1H-pyrazol-4-yl)-imidazo[1,2-b]pyridazin-3-ylmethyl]-quinoline] | 0.044 µM
15 | Cn1cc(-c2ccc3ncc(Cc4cn5ccnc5cc4F)n3n2)cn1 [Example 205, 3-(7-Fluoro-imidazo[1,2-a]pyridin-6-ylmethyl)-6-(1-methyl-1H-pyrazol-4-yl)-imidazo[1,2-b]pyridazine] | 0.047 µM
16 | c1cnc2ccc(Cc3cnc4ccc(-c5cnn(CCN6CCCC6)c5)nn34)cc2c1 [Example 236, 6-{6-[1-(2-Pyrrolidin-1-yl-ethyl)-1H-pyrazol-4-yl]-imidazo[1,2-b]pyridazin-3-ylmethyl}-quinoline] | 0.37 µM
17 | OCCn1cc(-c2ccc3ncc(Cc4ccc5ncccc5c4)n3n2)cn1 [Example 210, 2-[4-(3-Quinolin-6-ylmethyl-imidazo[1,2-b]pyridazin-6-yl)-pyrazol-1-yl]-ethanol] | 0.052 µM
18 | Clc1cccc(Nc2ccc3ncc(Cc4ccc5ncccc5c4)n3n2)c1Cl [Example 136, (2,3-Dichloro-phenyl)-(3-quinolin-6-ylmethyl-imidazo[1,2-b]pyridazin-6-yl)-amine] | 0.35 µM
19 | Cn1cc(-c2ccc3ncc(C(O)c4ccc5ncccc5c4F)n3n2)cn1 (racemic) [Example 247, (rac)-(5-Fluoro-quinolin-6-yl)-[6-(1-methyl-1H-pyrazol-4-yl)-imidazo[1,2-b]pyridazin-3-yl]-methanol] | 0.066 µM

Row | SMILES | IC50
20 | Cn1cc(-c2ccc3ncc(C(O)c4cc5cccnc5cc4F)n3n2)cn1 (racemic) [Example 248, (rac)-7-Fluoro-quinolin-6-yl)-[6-(1-methyl-1H-pyrazol-4-yl)-imidazo[1,2-b]pyridazin-3-yl]-methanol] | 0.37 µM
21 | CN(C)C(=O)c1cccc(-c2ccc3ncc(Cc4ccc5ncccc5c4)n3n2)c1 [Example 59, N,N-Dimethyl-3-(3-quinolin-6-6-ylmethyl-imidazo[1,2-b]pyridazin-6-yl)-benzamide] | 0.56 µM
22 | C[C@H](c1ccc2ncccc2c1)c1cnc2ccc(-c3cnn(C)c3)nn12 [Example 158, 6-{(R)-1-[6-(1-Methyl-1H-pyrazol-4-yl)-imidazo[1,2-b]pyridazin-3-yl]-ethyl}-quinoline] | 0.54 µM
23 | c1cnc2ccc(Cc3cnc4ccc(-c5ccc6c(c5)CCO6)nn34)cc2c1 [Example 63, 6-[6-(2,3-Dihydro-benzofuran-5-yl)-imidazo[1,2-b]pyridazin-3-ylmethyl]-quinoline] | 0.19 µM
24 | c1cnc2ccc(Cc3cnc4ccc(-c5ccn[nH]5)nn34)cc2c1 [Example 69, 6-[6-(2H-Pyrazol-3-yl)-imidazo[1,2-b]pyridazin-3-ylmethyl]-quinoline] | 0.82 µM
25 | CC(c1ccc2ncc(Br)n2c1)c1cnc2ccc(-c3cnn(CCO)c3)nn12 (racemic) [Example 310, (rac)-2-(4-{3-[1-(3-Bromo-imidazo[1,2-a]pyridin-6-yl)-ethyl]-imidazo[1,2-b]pyridazin-6-yl}-pyrazol-1-yl)-ethanol] | 0.01 µM
26 | CC(c1cc2cnn(C)c2cc1F)c1cnc2ccc(-c3cnn(CCO)c3)nn12 (racemic) [Example 279, (rac)-2-(4-{3-[1-(6-Fluoro-1-methyl-1H-indazol-5-yl)-ethyl]-imidazo[1,2-b]pyridazin-6-yl}-pyrazol-1-yl)-ethanol] | 0.015 µM
27 | CC(c1ccc2ncccc2c1)c1cnc2ccc(-c3cnn(C)c3)nn12 (racemic) [Example 157, (rac)-6-{1-[6-(1-Methyl-1H-pyrazol-4-yl)-imidazo[1,2-b]pyridazin-3-yl]-ethyl}-quinoline] | 0.007 µM
28 | C[C@@H](c1ccc2c(cnn2CCO)c1)c1cnc2ccc(-c3cnn(C)c3)nn12 [Example 275, 2-(5-{(S)-1-[6-(1-Methyl-1H-pyrazol-4-yl)-imidazo[1,2-b]pyridazin-3-yl]-ethyl}-indazol-1-yl)ethanol] | 0.15 µM
29 | C[C@@H](c1ccc2nccn2c1)c1cnc2ccc(-c3cnn(C)c3)nn12 [Example 295, 3-((S)-1-Imidazo[1,2-a]pyridin-6-yl-ethyl)-6-(1-methyl-1H-pyrazol-4-yl)-imidazo[1,2-b]pyridazine] | 0.019 µM
30 | C[C@H](c1ccc2nccn2c1)c1cnc2ccc(-c3cnn(C)c3)nn12 [Example 294, 3-((R)-1-Imidazo[1,2-a]pyridin-6-yl-ethyl)-6-(1-methyl-1H-pyrazol-4-yl)-imidazo[1,2-b]pyridazine] | 0.82 µM
31 | Cn1cc(-c2ccc3ncc(C(O)c4ccc5ncn(C)c5c4)n3n2)cn1 (racemic) [Example 229, (rac)-(3-Methyl-3H-benzoimidazol-5-yl)-[6-(1-methyl-1H-pyrazol-4-yl)-imidazo[1,2-b]pyridazin-3-yl]-methanol] | 0.52 µM
32 | Cn1cc(-c2ccc3ncc(Cc4ccc5ncc(Cl)n5c4)n3n2)cn1 [Example 298, 3-(3-Chloro-imidazo[1,2-a]pyridin-6-ylmethyl)-6-(1-methyl-1H-pyrazol-4-yl)-imidazo[1,2-b]pyridazine] | 0.13 µM
33 | OCCn1cc(-c2ccc3ncc(Cc4ccc(O)cc4F)n3n2)cn1 [Example 219, 3-Fluoro-4-{6-[1-(2-hydroxy-ethyl)-1H-pyrazol-4-yl]-imidazo[1,2-b]pyridazin-3-ylmethyl}-phenol] | 0.12 µM
34 | CCn1nccc1Nc1ccc2ncc(Cc3ccc4ncccc4c3)n2n1 [Example 132, (2-Ethyl-2H-pyrazol-3-yl)-(3-quinolin-6-ylmethyl-imidazo[1,2-b]pyridazin-6-yl)-amine] | 0.05 µM
35 | CC(=O)c1cccc(-c2ccc3ncc(Cc4ccc5ncccc5c4)n3n2)c1 [Example 55, 1-[3-(3-Quinolin-6-ylmethyl-imidazo[1,2-b]pyridazin-6-yl)-phenyl]-ethanone] | 0.031 µM
36 | CC(c1ccc2ncccc2c1Cl)c1cnc2ccc(-c3cnn(C4CCNCC4)c3)nn12 (racemic) [Example 223, (rac)-5-Chloro-6-{1-[6-(1-piperidin-4-yl-1H-pyrazol-4-yl)-imidazo[1,2-b]pyridazin-3-yl]-ethyl}-quinoline] | 0.033 µM
37 | Cn1ncc2c(F)c(Cc3cnc4ccc(-c5cnn(CCO)c5)nn34)c(F)cc21 [Example 285, 2-{4-[3-(4,6-Difluoro-1-methyl-1H-indazol-5-ylmethyl)-imidazo[1,2-b]pyridazin-6-yl]-pyrazol-1-yl}-ethanol] | 0.011 µM
38 | Clc1ccc(-c2ccc3ncc(Cc4ccc5ncccc5c4)n3n2)cn1 [Example 47, 6-[6-(6-Chloro-pyridin-3-yl)-imidazo[1,2-b]pyridazin-3-ylmethyl]-quinoline] | 0.1 µM
